Measurements: patent publication US9833497B2, “Human originated EGF domain proteins and use of the same” (CHENGDU SOURCEBIO LIMITED-LIABILITY COMPANY, priority 2013, dated 2017)

Tests used:
Type in all cases: cell-based
[1] = tested on: E. coli BL21; assay: MIC against Gram-negative bacteria: E. coli BL21; settings: for MIC E. coli BL21: two-fold serial dilution; for MIC (μg/mL) E. coli BL21 / MIC: E. coli BL21
How it was run: (§1)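 Read-out is absence of bacterial growth, with MIC set at the lowest recombinant protein concentration achieving it. Bacteria, pre-grown in LB to McFarland 0.5 and resuspended, were exposed at 5×10^5 CFU/mL to two-fold diluted human EGF domain proteins in triplicate at 37° C, 175 rpm.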

[2] = tested on: E. coli DH5α; assay: Antibacterial activity: MIC and growth curve against E. coli DH5α in 96-well plate; settings: minimal inhibitory concentration against E. coli DH5α; 96-well plate, 5×10^5 CFU/mL, 37° C., judged after 8 h
How it was run: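 Log-phase bacteria (OD600 ~0.5) resuspended in LB at 5×10^5 CFU/mL, exposed to recombinant protein at 50, 25, 12.5 μg/mL final in triplicate, 37 °C shaking at 175 rpm. OD600 read every 30 min; MIC is lowest concentration showing no growth.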

[3] = tested on: Moraxella catarrhalis; assay: MIC against Gram-negative bacteria: Moraxella catarrhalis; settings: for MIC M. catarrhalis: two-fold serial dilution
How it was run: as §1

[4] = tested on: Aeromonas hydrophila; assay: MIC against Gram-negative bacteria: Aeromonas hydrophila; settings: for MIC A. hydrophila: two-fold serial dilution
How it was run: as §1

[5] = tested on: Klebsiella pneumonia; assay: MIC against Gram-negative bacteria: Klebsiella pneumonia; settings: for MIC K. pneumonia: two-fold serial dilution
How it was run: as §1

[6] = tested on: Pseudomonas aeruginosa; assay: MIC against Gram-negative bacteria: Pseudomonas aeruginosa; settings: for MIC P. aeruginosa: two-fold serial dilution
How it was run: as §1

[7] = tested on: Serratia marcescens; assay: MIC against Gram-negative bacteria: Serratia marcescens; settings: for MIC S. marcescens: two-fold serial dilution
How it was run: as §1

[8] = tested on: Proteus vulgaris; assay: MIC against Gram-negative bacteria: Proteus vulgaris; settings: for MIC P. vulgaris: two-fold serial dilution
How it was run: as §1

[9] = tested on: Enterobacter cloacae; assay: MIC against Gram-negative bacteria: Enterobacter cloacae; settings: for MIC E. cloacae: two-fold serial dilution
How it was run: as §1

[10] = tested on: Citrobacter diversus; assay: MIC against Gram-negative bacteria: Citrobacter diversus; settings: for MIC C. diversus: two-fold serial dilution
How it was run: as §1

[11] = tested on: Proteus mirabilis; assay: MIC against Gram-negative bacteria: Proteus mirabilis; settings: for MIC P. mirabilis: two-fold serial dilution
How it was run: as §1

[12] = 10 h cultivation at 37° C., 5×10^5 CFU/mL
[13] = M. catarrhalis, 10 h cultivation at 37° C., 5×10^5 CFU/mL
[14] = A. hydrophila, 10 h cultivation at 37° C., 5×10^5 CFU/mL
[15] = K. pneumonia, 10 h cultivation at 37° C., 5×10^5 CFU/mL
[16] = P. aeruginosa, 10 h cultivation at 37° C., 5×10^5 CFU/mL
[17] = S. marcescens, 10 h cultivation at 37° C., 5×10^5 CFU/mL
[18] = P. vulgaris, 10 h cultivation at 37° C., 5×10^5 CFU/mL
[19] = E. cloacae, 10 h cultivation at 37° C., 5×10^5 CFU/mL
[20] = C. diversus, 10 h cultivation at 37° C., 5×10^5 CFU/mL
[21] = P. mirabilis, 10 h cultivation at 37° C., 5×10^5 CFU/mL

PRT156 (DINECDSNPCHHGGSCLDQPNGYNCHCPHGWVGANCE; listed as Homo sapiens)
MIC (μg/mL) E. coli BL21 [1, 12]: 12.5 µg/mL | MIC [2]: 25 µg/mL | MIC (μg/mL) M. catarrhalis [3, 13]: 50 µg/mL | MIC (μg/mL) A. hydrophila [4, 14]: 25 µg/mL | MIC (μg/mL) K. pneumonia [5, 15]: 25 µg/mL | MIC (μg/mL) P. aeruginosa [6, 16]: 12.5 µg/mL | MIC (μg/mL) S. marcescens [7, 17]: 50 µg/mL | MIC (μg/mL) P. vulgaris [8, 18]: 50 µg/mL | MIC (μg/mL) E. cloacae [9, 19]: 12.5 µg/mL | MIC (μg/mL) C. diversus [10, 20]: 12.5 µg/mL | MIC (μg/mL) P. mirabilis [11, 21]: 12.5 µg/mL

PRT1082 (GTNPCSVNNGDCSQLCLPTSETTRSCMCTAGYSLRSGQQACE; listed as Homo sapiens)
MIC E. coli BL21 [1, 12]: 12.5 µg/mL | MIC [2]: 50 µg/mL | MIC M. catarrhalis [3, 12]: 50 µg/mL | MIC A. hydrophila [4, 12]: 12.5 µg/mL | MIC K. pneumonia [5, 12]: 50 µg/mL | MIC P. aeruginosa [6, 12]: 25 µg/mL | MIC S. marcescens [7, 12]: 25 µg/mL | MIC P. vulgaris [8, 12]: 12.5 µg/mL | MIC E. cloacae [9, 12]: 25 µg/mL | MIC C. diversus [10, 12]: 25 µg/mL | MIC P. mirabilis [11, 12]: 25 µg/mL

PRT112 (DINECTDFVDVPCSHFCNNFIGGYFCSCPPEYFLHDDMKNCG; listed as Homo sapiens)
MIC (μg/mL) E. coli BL21 ([1]; 96-well plate, 5×10^5 CFU/mL, 37° C., 10 h): 12.5 µg/mL | MIC [2]: 50 µg/mL | MIC (μg/mL) M. catarrhalis ([3]; Moraxella catarrhalis, 96-well plate, 5×10^5 CFU/mL, 37° C., 10 h): 12.5 µg/mL | MIC (μg/mL) A. hydrophila ([4]; Aeromonas hydrophila, 96-well plate, 5×10^5 CFU/mL, 37° C., 10 h): 12.5 µg/mL | MIC (μg/mL) K. pneumonia ([5]; Klebsiella pneumonia, 96-well plate, 5×10^5 CFU/mL, 37° C., 10 h): 12.5 µg/mL | MIC (μg/mL) P. aeruginosa ([6]; Pseudomonas aeruginosa, 96-well plate, 5×10^5 CFU/mL, 37° C., 10 h): 50 µg/mL | MIC (μg/mL) S. marcescens ([7]; Serratia marcescens, 96-well plate, 5×10^5 CFU/mL, 37° C., 10 h): 50 µg/mL | MIC (μg/mL) P. vulgaris ([8]; Proteus vulgaris, 96-well plate, 5×10^5 CFU/mL, 37° C., 10 h): 12.5 µg/mL | MIC (μg/mL) E. cloacae ([9]; Enterobacter cloacae, 96-well plate, 5×10^5 CFU/mL, 37° C., 10 h): 12.5 µg/mL | MIC (μg/mL) C. diversus ([10]; Citrobacter diversus, 96-well plate, 5×10^5 CFU/mL, 37° C., 10 h): 12.5 µg/mL | MIC (μg/mL) P. mirabilis ([11]; Proteus mirabilis, 96-well plate, 5×10^5 CFU/mL, 37° C., 10 h): 50 µg/mL

PRT432 (DVDECATDSHQCNPTQICINTEGGYTCSCTDGYWLLEGQCL; listed as Homo sapiens)
MIC [1, 12]: 50 µg/mL | MIC [2]: 25 µg/mL | MIC [3, 13]: 12.5 µg/mL | MIC [4, 14]: 50 µg/mL | MIC [5, 15]: 12.5 µg/mL | MIC [6, 16]: 25 µg/mL | MIC [7, 17]: 25 µg/mL | MIC [8, 18]: 50 µg/mL | MIC [9, 19]: 25 µg/mL | MIC [10, 20]: 25 µg/mL | MIC [11, 21]: 25 µg/mL

PRT1035 (HRAKCAPSYLFSCFNGGECVHPAFCDCRRFNATGPRCQ; listed as Homo sapiens)
MIC ([1]; 10 h cultivation at 37° C.): 50 µg/mL | MIC [2]: 12.5 µg/mL | MIC ([3]; M. catarrhalis, 10 h cultivation at 37° C.): 25 µg/mL | MIC ([4]; A. hydrophila, 10 h cultivation at 37° C.): 50 µg/mL | MIC ([5]; K. pneumonia, 10 h cultivation at 37° C.): 25 µg/mL | MIC ([6]; P. aeruginosa, 10 h cultivation at 37° C.): 12.5 µg/mL | MIC ([7]; S. marcescens, 10 h cultivation at 37° C.): 50 µg/mL | MIC ([8]; P. vulgaris, 10 h cultivation at 37° C.): 25 µg/mL | MIC ([9]; E. cloacae, 10 h cultivation at 37° C.): 25 µg/mL | MIC ([10]; C. diversus, 10 h cultivation at 37° C.): 12.5 µg/mL | MIC ([11]; P. mirabilis, 10 h cultivation at 37° C.): 12.5 µg/mL

PRT1132 (DEHICTTQSPCQNGGQCMYDGGGEYHCVCLPGFHGRDCE; listed as Homo sapiens)
MIC E. coli BL21 [1, 12]: 12.5 µg/mL | MIC [2]: 50 µg/mL | MIC M. catarrhalis [3, 12]: 12.5 µg/mL | MIC A. hydrophila [4, 12]: 12.5 µg/mL | MIC K. pneumonia [5, 12]: 12.5 µg/mL | MIC P. aeruginosa [6, 12]: 50 µg/mL | MIC S. marcescens [7, 12]: 25 µg/mL | MIC P. vulgaris [8, 12]: 50 µg/mL | MIC E. cloacae [9, 12]: 50 µg/mL | MIC C. diversus [10, 12]: 50 µg/mL | MIC P. mirabilis [11, 12]: 25 µg/mL
